We go through eight compounds from patent publication US10689376B2, “Substituted-3H-imidazo [4,5-c] pyridine and 1H-pyrrolo[2,3-c]pyridine series of novel ectonucleotide pyrophosphatase/phosphodiesterase-1 (ENPP1) and stimulator for interferon genes (STING) modulators as cancer immunotherapeutics” (Stingray Therapeutics, Inc., priority 2017, dated 2020).

In one test the test system is Saos-2 Cells. Briefly: ENPP1 Mineralization Assay. Also on record: key to ENPP1 Mineral assay (50% inhibition at 50 μM): +: active at 50 μM concentration; NA: Not Active. In kind it is cell-based. Particulars: for ENPP1 Mineral assay (50% inhibition at 50 μM): Alizarin Red; for inhibiting ENPP1 ability to produce mineralized nodules (FIG. 4): result in words. How it is done: 4. ENPP1 Mineralization Assay
Saos-2 Cells (ATCC CAT # HTB-85)
24-well Tissue Culture Plate
Ascorbic Acid, 5 mg/mL (100×)
β-Glycerophosphate, 1M (100×)
Phosphate Buffered Saline
Alizarin Red, 40 mM pH 4.2
Dye Extraction Reagent, 10% Methanol+10% Acetic Acid
Saos-2 cells were plated at a density of 1.5×10^6 cells/well and allowed to grow to 100% confluency over the following 1-2 days. Once completely confluent, the media was replaced with fresh media supplemented with 1× ascorbic acid, 1× β-glycerophosphate, and varying concentrations of ENPP1 inhibitor (if applicable). The addition of the mineralization components was considered Day 1, On Day 3, the media was gently aspirated with no wash followed by the addition of fresh media, mineralization components, and ENPP1 inhibitor (if applicable). On day 5, the media was gently aspirated and the cells were washed twice with PBS. The cells were then fixed with ice cold 70% ethanol for 1 hour at 4° C. Cells were washed once with PBS and stained with Alizarin Red for 30 minutes at room temperature with gentle rotation. Stained cells were washed three times with water for 10 minutes at room temperature with gentle rotation. After imaging cells, dye extraction reagent was added to each well and incubated for 30 minutes at room temperature. Alizarin red was quantified by measuring absorbance at a wavelength of 405 nm using the Envision.

Test [1] concerns the target T1, Recombinant Human ENPP-1 Protein (Homo sapiens (Human), UniProt P22413). Briefly: ENPP1 Inhibition Assay. It counts as biochemical. The following applies: for IC50: substrate thymidine 5′-monophosphate p-nitrophenol ester, absorbance at 405 nm; for inhibiting the activity of ENPP1 (FIG. 1): result in words. How it is done:
1. ENPP1 Inhibition Assay
Materials: • Assay Buffer: 1 mM CaCl2, 0.2 mM ZnCl2, 50 mM Tris, pH 9.0 • Substrate: 8 mM Thymidine 5′-monophosphate p-nitrophenol ester sodium salt (Sigma Cat # T4510) • Enzyme: 5 ng/μL Recombinant Human ENPP-1 Protein (R&D Cat #6136-EN-010) DMSO • 96-well clear assay plates
(§1) An eight point serial dilution of drugs was prepared in 10× in assay buffer with the final assay concentrations starting at 10 μM, 3 μM, 1 μM, 0.3 μM . . . 0 μM. A dilution of DMSO was included as a control. The assay plate was set up as follows with each well in duplicate: 81 μL assay buffer+10 μL ENPP1 inhibitor or DMSO+5 μL Substrate+4 μL Enzyme. Both the enzyme and substrate were added to opposite sides of the well to ensure that there was no interaction until all wells had both components. The plate was then centrifuged gently for 10 seconds, followed by an incubation at 37° C. for 45 minutes. The reaction was quantified by measuring absorbance at 405 nm using the Envision.
(§2) IC50 values are determined using GraphPad Prism 5 software. The data were entered as an X-Y plot into the software as percent inhibition for each concentration of the drug. The concentration values of the drug were log transformed and the nonlinear regression was carried out using the “sigmoidal dose-response (variable slope)” option within the GraphPad software to model the data and calculate IC50 values. The IC50 values reported are the concentration of drug at which 50% inhibition was reached.

Test [2] concerns the target T1, Recombinant Human ENPP-1 Protein. Briefly: ENPP1 Thermal Shift Assay. It counts as binding. How it is done: 3. ENPP1 Thermal Shift Assay Materials: Recombinant Human ENPP-1 Protein (R&D Cat #6136-EN-010) Assay Buffer (1 mM CaCl2, 0.2 mM ZnCl2, 50 mM Tris, pH 9.0) 5000× SYPRO Orange (ThermoFisher cat # S6651) 384-well PCR Plates Methods: Each drug was prepared as a 10× solution in the assay buffer and SYPRO Orange was diluted to 10× concentration in water. Wells were set up in duplicate in a 384-well PCR plate as follows: 14 μL assay buffer, 2 μL ENPP1 Inhibitor or DMSO, 2 μL (0.5 μg) ENPP1 protein. Each well was mixed and incubated on ice for 5 minutes. Post incubation, 2 μL of SYPRO Orange was mixed into each well and followed by a gentle centrifugation. The protein melt reaction was run using ViiA7 software with temperatures beginning at 25° C. and increasing by 0.05° C./s to the maximum temperature of 99° C.

Test [3] deals with Recombinant Human ENPP-2/Autotaxin Protein (Homo sapiens (Human), UniProt Q13822). Nature of the test: ENPP2 Inhibition Assay. In kind it is biochemical. The following applies: result in words. The procedure:
2. ENPP2 Inhibition Assay
Assay Buffer: 10 mM CaCl2, 5 mM MgCl2, 50 mM Tris, 0.02% Brij-35, pH 8.5
Substrate: 2 mM Bis(p-Nitrophenyl) Phosphate Sodium Salt (Sigma Cat # N3002)
Enzyme: 0.2 ng/μL Recombinant Human ENPP-2/Autotaxin Protein (R&D Cat #5255-EN)
96-well clear assay plates
as §1, with “duplicate: 15” for “duplicate: 81”, “buffer+10 μL,” for “buffer+10 μL”, “or DMSO+50” for “or DMSO+5”, “μL Substrate+25” for “μL Substrate+4”
as §2

T1 sequence (P22413 whole entry): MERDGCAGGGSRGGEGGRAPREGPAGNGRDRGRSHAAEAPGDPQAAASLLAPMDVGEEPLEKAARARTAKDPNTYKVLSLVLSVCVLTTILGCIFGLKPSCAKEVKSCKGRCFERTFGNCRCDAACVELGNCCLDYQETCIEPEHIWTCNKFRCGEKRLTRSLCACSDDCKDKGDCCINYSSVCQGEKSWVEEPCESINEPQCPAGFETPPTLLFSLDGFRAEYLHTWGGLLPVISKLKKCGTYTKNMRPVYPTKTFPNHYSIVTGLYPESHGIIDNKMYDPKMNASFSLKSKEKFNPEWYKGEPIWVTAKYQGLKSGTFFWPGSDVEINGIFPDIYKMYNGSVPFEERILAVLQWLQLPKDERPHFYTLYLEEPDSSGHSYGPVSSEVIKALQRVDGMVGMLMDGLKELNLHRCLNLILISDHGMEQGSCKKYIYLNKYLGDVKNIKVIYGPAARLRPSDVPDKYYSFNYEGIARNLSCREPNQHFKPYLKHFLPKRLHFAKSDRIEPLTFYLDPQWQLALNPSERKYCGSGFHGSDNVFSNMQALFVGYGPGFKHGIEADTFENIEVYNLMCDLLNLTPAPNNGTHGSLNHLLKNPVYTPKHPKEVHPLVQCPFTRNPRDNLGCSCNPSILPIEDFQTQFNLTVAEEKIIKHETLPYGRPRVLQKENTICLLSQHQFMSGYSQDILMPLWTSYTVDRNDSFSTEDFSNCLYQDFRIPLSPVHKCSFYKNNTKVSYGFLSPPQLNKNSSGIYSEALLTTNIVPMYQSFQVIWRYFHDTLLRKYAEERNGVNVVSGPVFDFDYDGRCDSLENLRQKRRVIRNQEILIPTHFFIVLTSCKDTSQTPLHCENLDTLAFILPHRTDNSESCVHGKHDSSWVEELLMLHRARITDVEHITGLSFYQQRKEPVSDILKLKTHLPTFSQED

As to `O=C(CSc1nc2cnc(Cl)cc2[nH]1)Nc1ccc(F)c(O)c1` [Compound 37, 2-((6-chloro-1H-imidazo[4,5-c]pyridin-2-yl)thio)-N-(4-fluoro-3-hydroxyphenyl)acetamide], the “ENPP1 Mineral assay (50% inhibition at 50 μM)” value in the test with Saos-2 Cells is given as “+”. In addition, in test [1], the IC50 turned out to be 170 nM.

Regarding `O=C(CSc1nc2cnc(C(F)(F)F)cc2[nH]1)Nc1ccc(F)c(O)c1` [Compound 45, N-(4-fluoro-3-hydroxyphenyl)-2-((6-(trifluoromethyl)-1H-imidazo[4,5-c]pyridin-2-yl)thio)acetamide], the “ENPP1 Mineral assay (50% inhibition at 50 μM)” value with Saos-2 Cells is listed as “+”. Besides, the half-inhibitory concentration (IC50) in test [1] turned out to be 651 nM.

Consider `COc1ccc(NC(=O)CSc2nc3cc(C#N)ncc3[nH]2)cc1OC` [Compound 68, 2-((6-Cyano-3H-imidazo[4,5-c]pyridin-2-yl)thio)-N-(3,4-dimethoxyphenyl)acetamide], for which, in the test on Saos-2 Cells, the “ENPP1 Mineral assay (50% inhibition at 50 μM)” value is given as “+” and the “inhibiting ENPP1 ability to produce mineralized nodules (FIG. 4)” value was “effective in inhibiting ENPP1 ability to produce mineralized nodules”. Moreover, in test [1], the “inhibiting the activity of ENPP1 (FIG. 1)” value is recorded as “effective in inhibiting the activity of ENPP1” and the half-maximal inhibitory concentration (IC50) worked out at 114 nM.

In the case of `COc1ccc(NC(=O)CSc2nc3cc(Cl)ncc3[nH]2)cc1O` [Compound 21, 2-((6-chloro-3H-imidazo[4,5-c]pyridin-2-yl)thio)-N-(3-hydroxy-4-methoxyphenyl)acetamide], in the test with Saos-2 Cells, the “ENPP1 Mineral assay (50% inhibition at 50 μM)” value was “+” and the “inhibiting ENPP1 ability to produce mineralized nodules (FIG. 4)” value is recorded as “effective in inhibiting ENPP1 ability to produce mineralized nodules”. Also, the “Tm (midpoint of the protein unfolding transition) of ENPP1 in the presence of compound” value in test [2] (Tm of ENPP1 alone 64.2° C.) amounted to 67.84 °C. For the same compound, the “stability of recombinant ENPP1 protein (FIG. 3)” value in test [2] (result in words) is “effective in increasing the stability of recombinant ENPP1 protein”. Also, in test [3], the “inhibiting the activity of ENPP2 (FIGS. 2A and 2B)” value was “ineffective in inhibiting the activity of ENPP2”; the “selectivity ENPP1 versus ENPP2” value is given as “selective at inhibiting ENPP1 but not ENPP2”. In test [1], the “inhibiting the activity of ENPP1 (FIG. 1)” value is reported as “effective in inhibiting the activity of ENPP1” and the IC50 is 86 nM.

As to `COc1ccc(NC(=O)CSc2nc3c(C)c(C#N)ncc3[nH]2)cc1O` [Compound 78, 2-((6-Cyano-7-methyl-3H-imidazo[4,5-c]pyridin-2-yl)thio)-N-(3-hydroxy-4-methoxyphenyl)acetamide], the “ENPP1 Mineral assay (50% inhibition at 50 μM)” value with Saos-2 Cells is “+”. Also, in test [3], the “inhibiting the activity of ENPP2 (FIGS. 2A and 2B)” value is “ineffective in inhibiting the activity of ENPP2”; the “selectivity ENPP1 versus ENPP2” value is “selective at inhibiting ENPP1 but not ENPP2”. In test [1], the “inhibiting the activity of ENPP1 (FIG. 1)” value is on record as “effective in inhibiting the activity of ENPP1” and the half-inhibitory concentration (IC50) came to 79 nM.

Consider `COc1ccc(NC(=O)CSc2nc3cnc(C(F)(F)F)cc3[nH]2)cc1F` [Compound 38, N-(3-fluoro-4-methoxyphenyl)-2-((6-(trifluoromethyl)-1H-imidazo[4,5-c]pyridin-2-yl)thio)acetamide], for which the “ENPP1 Mineral assay (50% inhibition at 50 μM)” value with Saos-2 Cells was “+”. Moreover, in test [1], the half-inhibitory concentration (IC50) was 487 nM.

With `COc1cc(NC(=O)CSc2nc3cc(Cl)ncc3[nH]2)ccc1O` [Compound 22, 2-((6-chloro-3H-imidazo[4,5-c]pyridin-2-yl)thio)-N-(4-hydroxy-3-methoxyphenyl)acetamide], the “ENPP1 Mineral assay (50% inhibition at 50 μM)” value in the test with Saos-2 Cells is listed as “+”. Further, in test [1], the half-inhibitory concentration (IC50) amounted to 1160 nM.

For `COc1ccc(NC(=O)CSc2nc3cnc(C(F)(F)F)cc3[nH]2)cc1O` [Compound 31, N-(3-hydroxy-4-methoxyphenyl)-2-((6-(trifluoromethyl)-1H-imidazo[4,5-c]pyridin-2-yl)thio)acetamide], the “ENPP1 Mineral assay (50% inhibition at 50 μM)” value in the test with Saos-2 Cells was “+”. The IC50 in test [1] was 181 nM.

What is called IC50 is the midpoint of a concentration-inhibition curve.
